# Laboratory results: PMC12586182 (Frontiers in Oncology, 2025)
# Tests used:
# [1] = biological target: T1, FYN [isoform a] (Homo sapiens, UniProt P06241); assay: Kinase panel profiling at 1 µmol/L (mobility shift assay, Carna); type: biochemical; details: 1 µmol/L of BTK inhibitor
# T1 construct: purchased Carna Biosciences
# [2] = biological target: T2, ZAP70 (Homo sapiens, UniProt P43403); assay: as above; type: biochemical; details: 1 µmol/L of BTK inhibitor
# T2 construct: purchased Carna Biosciences
# T2 sequence (P43403 1-619): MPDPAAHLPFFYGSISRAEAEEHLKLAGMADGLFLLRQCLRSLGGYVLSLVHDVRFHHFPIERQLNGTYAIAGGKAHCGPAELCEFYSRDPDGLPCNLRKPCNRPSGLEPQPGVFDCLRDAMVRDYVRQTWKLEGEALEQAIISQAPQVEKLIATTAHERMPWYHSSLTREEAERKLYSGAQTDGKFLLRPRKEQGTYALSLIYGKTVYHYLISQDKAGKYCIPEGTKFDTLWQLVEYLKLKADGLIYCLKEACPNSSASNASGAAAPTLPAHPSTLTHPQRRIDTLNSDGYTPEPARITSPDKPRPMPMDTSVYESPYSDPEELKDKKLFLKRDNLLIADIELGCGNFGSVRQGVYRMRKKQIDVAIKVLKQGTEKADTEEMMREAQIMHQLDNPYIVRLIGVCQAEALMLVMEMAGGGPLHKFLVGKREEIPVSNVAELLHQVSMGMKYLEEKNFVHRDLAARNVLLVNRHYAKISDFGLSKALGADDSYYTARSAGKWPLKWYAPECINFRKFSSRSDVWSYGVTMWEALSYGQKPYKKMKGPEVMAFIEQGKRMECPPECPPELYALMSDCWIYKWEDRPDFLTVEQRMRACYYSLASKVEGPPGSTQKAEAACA
# [3] = biological target: T3, PLK3 (Homo sapiens, UniProt Q9H4B4); assay: as above; type: biochemical; details: 1 µmol/L of BTK inhibitor
# T3 construct: purchased Carna Biosciences
# [4] = biological target: T4, TSSK1 (Homo sapiens, UniProt Q9BXA7); assay: as above; type: biochemical; details: 1 µmol/L of BTK inhibitor
# T4 construct: purchased Carna Biosciences
# T4 sequence (Q9BXA7 1-367): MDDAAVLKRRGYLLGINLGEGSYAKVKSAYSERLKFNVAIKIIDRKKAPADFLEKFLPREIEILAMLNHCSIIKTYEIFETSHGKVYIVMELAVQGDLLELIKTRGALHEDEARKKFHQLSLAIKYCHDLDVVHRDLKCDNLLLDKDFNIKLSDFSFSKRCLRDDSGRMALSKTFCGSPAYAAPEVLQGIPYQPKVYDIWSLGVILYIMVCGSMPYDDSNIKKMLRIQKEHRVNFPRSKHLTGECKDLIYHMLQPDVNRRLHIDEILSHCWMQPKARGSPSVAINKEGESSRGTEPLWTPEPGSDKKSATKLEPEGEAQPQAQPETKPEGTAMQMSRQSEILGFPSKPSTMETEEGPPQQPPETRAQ
# [5] = biological target: T5, FGR (Homo sapiens, UniProt P09769); assay: as above; type: biochemical; details: 1 µmol/L of BTK inhibitor
# T5 construct: purchased Carna Biosciences
# [6] = biological target: FGFR2 (Homo sapiens, UniProt P21802); assay: Kinase enzyme activity assay (mobility shift assay, Carna); details: for Percentage inhibition of kinase enzyme activity: FGFR2, 1 µmol/L of BTK inhibitor
# [7] = biological target: T6, AurC (Homo sapiens, UniProt Q9UQB9); assay: Kinase panel profiling at 1 µmol/L (mobility shift assay, Carna); type: biochemical; details: 1 µmol/L of BTK inhibitor
# T6 construct: purchased Carna Biosciences
# T6 sequence (Q9UQB9 1-309): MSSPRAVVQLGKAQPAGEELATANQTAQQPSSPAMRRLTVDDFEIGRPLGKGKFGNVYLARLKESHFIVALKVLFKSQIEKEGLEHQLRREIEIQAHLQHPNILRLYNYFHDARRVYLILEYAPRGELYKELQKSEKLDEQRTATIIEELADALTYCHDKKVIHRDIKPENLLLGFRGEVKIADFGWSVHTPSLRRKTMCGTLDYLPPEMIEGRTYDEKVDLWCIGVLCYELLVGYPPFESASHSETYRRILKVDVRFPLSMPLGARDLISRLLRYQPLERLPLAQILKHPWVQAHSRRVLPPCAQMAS
# [8] = biological target: T7, FAK (Homo sapiens, UniProt Q05397); assay: as above; type: biochemical; details: 1 µmol/L of BTK inhibitor
# T7 construct: purchased Carna Biosciences
# [9] = biological target: T8, SGK (Homo sapiens, UniProt O00141); assay: as above; type: biochemical; details: 1 µmol/L of BTK inhibitor
# T8 construct: purchased Carna Biosciences
# T8 sequence (O00141 1-431): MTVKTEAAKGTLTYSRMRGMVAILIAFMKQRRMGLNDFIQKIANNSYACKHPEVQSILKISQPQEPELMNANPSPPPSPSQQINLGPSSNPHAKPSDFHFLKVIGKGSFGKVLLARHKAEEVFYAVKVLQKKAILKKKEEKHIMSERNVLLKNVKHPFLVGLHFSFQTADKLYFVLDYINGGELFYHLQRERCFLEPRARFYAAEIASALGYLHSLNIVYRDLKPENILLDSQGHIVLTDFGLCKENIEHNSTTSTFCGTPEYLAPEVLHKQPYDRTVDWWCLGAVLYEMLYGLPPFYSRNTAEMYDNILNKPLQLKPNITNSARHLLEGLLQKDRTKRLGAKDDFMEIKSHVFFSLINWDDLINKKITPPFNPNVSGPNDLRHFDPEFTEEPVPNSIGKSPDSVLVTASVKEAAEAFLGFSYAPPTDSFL
# [10] = biological target: T9, PDK1 (Homo sapiens, UniProt O15530); assay: as above; type: biochemical; details: 1 µmol/L of BTK inhibitor
# T9 construct: purchased Carna Biosciences
# T9 sequence (O15530 1-556): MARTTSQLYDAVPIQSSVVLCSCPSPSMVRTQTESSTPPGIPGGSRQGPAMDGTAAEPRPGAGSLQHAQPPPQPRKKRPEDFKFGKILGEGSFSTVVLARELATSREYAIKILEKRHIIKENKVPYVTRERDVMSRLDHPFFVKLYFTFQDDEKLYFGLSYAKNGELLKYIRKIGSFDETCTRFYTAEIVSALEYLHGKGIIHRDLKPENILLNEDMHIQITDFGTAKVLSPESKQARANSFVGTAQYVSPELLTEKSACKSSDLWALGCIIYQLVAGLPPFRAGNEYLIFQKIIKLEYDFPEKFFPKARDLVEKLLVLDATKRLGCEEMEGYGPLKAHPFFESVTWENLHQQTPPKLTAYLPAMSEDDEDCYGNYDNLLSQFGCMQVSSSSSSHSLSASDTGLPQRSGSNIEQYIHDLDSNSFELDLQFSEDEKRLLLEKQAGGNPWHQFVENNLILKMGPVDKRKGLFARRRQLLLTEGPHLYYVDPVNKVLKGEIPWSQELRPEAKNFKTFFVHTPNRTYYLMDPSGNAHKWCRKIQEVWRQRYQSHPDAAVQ
# [11] = biological target: T10, ALK (Homo sapiens, UniProt Q9UM73); assay: as above; type: biochemical; details: 1 µmol/L of BTK inhibitor
# T10 construct: purchased Carna Biosciences
# [12] = biological target: T11, MNK2 (Homo sapiens, UniProt Q9HBH9); assay: as above; type: biochemical; details: 1 µmol/L of BTK inhibitor
# T11 construct: purchased Carna Biosciences
# [13] = biological target: T12, CLK1 (Homo sapiens, UniProt P49759); assay: as above; type: biochemical; details: 1 µmol/L of BTK inhibitor
# T12 construct: purchased Carna Biosciences
# T11 sequence (Q9HBH9 whole entry): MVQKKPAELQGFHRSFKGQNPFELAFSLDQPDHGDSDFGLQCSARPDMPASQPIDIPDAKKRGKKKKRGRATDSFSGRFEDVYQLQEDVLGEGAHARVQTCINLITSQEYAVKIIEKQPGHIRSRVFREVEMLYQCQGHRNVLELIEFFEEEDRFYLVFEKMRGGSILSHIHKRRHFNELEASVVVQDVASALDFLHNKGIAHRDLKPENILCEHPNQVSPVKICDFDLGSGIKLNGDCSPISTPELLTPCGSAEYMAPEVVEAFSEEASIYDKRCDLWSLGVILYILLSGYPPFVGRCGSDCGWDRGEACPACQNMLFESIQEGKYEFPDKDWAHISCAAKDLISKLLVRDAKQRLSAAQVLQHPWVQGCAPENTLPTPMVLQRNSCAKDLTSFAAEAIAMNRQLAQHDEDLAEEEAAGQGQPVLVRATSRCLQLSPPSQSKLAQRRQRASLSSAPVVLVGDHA
# T1 sequence (P06241 whole entry, canonical isoform): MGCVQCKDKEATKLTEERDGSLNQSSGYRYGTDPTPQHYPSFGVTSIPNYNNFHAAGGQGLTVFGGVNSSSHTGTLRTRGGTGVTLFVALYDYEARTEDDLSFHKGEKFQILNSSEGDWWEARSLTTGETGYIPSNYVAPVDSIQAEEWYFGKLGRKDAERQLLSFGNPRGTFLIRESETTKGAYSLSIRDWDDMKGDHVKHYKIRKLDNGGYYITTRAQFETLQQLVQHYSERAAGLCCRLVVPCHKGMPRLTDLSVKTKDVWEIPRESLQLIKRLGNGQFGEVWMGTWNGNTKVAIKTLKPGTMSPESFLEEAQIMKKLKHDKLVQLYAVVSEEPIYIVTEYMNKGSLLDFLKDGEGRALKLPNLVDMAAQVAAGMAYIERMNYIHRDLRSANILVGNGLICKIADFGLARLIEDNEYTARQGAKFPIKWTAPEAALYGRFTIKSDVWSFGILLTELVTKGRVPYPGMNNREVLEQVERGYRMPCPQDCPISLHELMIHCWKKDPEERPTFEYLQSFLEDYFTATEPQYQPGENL
# T5 sequence (P09769 whole entry): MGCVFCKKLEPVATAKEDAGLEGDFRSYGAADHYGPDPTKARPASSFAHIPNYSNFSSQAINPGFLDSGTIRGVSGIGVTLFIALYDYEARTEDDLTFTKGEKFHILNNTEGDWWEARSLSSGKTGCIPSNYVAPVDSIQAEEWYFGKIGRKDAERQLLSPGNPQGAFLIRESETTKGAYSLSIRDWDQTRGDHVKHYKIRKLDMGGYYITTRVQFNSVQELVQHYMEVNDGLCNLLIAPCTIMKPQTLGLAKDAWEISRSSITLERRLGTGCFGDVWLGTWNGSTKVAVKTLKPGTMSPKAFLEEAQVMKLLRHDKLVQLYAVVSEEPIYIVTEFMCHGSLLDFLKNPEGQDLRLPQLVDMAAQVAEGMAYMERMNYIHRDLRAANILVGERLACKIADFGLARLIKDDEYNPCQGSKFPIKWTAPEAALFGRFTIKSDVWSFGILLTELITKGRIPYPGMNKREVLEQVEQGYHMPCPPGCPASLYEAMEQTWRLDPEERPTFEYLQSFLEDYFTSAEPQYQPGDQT
# T3 sequence (Q9H4B4 whole entry): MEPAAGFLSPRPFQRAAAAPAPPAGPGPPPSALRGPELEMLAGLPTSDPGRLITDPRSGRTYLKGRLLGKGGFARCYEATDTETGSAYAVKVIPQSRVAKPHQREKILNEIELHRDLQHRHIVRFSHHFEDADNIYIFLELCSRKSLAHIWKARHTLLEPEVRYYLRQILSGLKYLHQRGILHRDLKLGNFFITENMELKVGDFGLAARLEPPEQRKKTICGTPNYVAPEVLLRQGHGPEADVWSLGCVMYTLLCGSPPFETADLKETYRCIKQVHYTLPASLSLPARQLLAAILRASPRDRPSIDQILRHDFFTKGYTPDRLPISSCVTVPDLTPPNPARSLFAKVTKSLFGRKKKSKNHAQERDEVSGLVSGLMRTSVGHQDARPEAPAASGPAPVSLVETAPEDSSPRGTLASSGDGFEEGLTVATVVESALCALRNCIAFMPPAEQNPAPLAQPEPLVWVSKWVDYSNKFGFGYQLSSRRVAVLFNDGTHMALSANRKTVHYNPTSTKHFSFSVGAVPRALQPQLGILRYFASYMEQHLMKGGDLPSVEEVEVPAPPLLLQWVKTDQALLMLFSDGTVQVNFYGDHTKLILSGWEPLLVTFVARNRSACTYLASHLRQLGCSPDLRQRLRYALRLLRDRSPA
# T7 sequence (Q05397 whole entry): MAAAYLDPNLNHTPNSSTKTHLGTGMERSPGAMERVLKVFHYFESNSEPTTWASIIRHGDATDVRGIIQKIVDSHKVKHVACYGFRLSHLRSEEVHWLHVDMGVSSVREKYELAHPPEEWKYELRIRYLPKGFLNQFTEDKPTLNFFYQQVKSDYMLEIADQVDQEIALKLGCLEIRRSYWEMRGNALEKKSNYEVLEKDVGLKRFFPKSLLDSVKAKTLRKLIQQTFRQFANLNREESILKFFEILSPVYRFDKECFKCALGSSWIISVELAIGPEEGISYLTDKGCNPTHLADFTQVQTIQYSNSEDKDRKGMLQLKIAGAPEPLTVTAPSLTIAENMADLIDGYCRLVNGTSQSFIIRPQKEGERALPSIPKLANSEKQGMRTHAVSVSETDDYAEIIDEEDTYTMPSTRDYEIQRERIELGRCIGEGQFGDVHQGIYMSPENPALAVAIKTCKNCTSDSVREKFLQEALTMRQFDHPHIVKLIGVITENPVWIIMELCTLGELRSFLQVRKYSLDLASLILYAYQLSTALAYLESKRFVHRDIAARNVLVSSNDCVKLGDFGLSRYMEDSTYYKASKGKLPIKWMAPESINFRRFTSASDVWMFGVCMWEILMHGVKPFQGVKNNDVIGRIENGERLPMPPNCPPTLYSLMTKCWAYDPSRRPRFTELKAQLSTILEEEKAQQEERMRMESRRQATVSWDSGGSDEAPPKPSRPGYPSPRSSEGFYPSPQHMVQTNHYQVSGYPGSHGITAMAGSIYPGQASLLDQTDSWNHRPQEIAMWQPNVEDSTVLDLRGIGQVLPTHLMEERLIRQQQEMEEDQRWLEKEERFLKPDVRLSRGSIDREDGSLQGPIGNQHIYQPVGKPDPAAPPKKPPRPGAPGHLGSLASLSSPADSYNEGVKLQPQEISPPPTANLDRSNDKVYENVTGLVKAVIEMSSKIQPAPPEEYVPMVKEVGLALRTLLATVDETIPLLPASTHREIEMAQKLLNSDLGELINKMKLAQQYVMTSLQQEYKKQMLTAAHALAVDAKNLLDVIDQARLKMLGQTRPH
# T10 sequence (Q9UM73 19-1620): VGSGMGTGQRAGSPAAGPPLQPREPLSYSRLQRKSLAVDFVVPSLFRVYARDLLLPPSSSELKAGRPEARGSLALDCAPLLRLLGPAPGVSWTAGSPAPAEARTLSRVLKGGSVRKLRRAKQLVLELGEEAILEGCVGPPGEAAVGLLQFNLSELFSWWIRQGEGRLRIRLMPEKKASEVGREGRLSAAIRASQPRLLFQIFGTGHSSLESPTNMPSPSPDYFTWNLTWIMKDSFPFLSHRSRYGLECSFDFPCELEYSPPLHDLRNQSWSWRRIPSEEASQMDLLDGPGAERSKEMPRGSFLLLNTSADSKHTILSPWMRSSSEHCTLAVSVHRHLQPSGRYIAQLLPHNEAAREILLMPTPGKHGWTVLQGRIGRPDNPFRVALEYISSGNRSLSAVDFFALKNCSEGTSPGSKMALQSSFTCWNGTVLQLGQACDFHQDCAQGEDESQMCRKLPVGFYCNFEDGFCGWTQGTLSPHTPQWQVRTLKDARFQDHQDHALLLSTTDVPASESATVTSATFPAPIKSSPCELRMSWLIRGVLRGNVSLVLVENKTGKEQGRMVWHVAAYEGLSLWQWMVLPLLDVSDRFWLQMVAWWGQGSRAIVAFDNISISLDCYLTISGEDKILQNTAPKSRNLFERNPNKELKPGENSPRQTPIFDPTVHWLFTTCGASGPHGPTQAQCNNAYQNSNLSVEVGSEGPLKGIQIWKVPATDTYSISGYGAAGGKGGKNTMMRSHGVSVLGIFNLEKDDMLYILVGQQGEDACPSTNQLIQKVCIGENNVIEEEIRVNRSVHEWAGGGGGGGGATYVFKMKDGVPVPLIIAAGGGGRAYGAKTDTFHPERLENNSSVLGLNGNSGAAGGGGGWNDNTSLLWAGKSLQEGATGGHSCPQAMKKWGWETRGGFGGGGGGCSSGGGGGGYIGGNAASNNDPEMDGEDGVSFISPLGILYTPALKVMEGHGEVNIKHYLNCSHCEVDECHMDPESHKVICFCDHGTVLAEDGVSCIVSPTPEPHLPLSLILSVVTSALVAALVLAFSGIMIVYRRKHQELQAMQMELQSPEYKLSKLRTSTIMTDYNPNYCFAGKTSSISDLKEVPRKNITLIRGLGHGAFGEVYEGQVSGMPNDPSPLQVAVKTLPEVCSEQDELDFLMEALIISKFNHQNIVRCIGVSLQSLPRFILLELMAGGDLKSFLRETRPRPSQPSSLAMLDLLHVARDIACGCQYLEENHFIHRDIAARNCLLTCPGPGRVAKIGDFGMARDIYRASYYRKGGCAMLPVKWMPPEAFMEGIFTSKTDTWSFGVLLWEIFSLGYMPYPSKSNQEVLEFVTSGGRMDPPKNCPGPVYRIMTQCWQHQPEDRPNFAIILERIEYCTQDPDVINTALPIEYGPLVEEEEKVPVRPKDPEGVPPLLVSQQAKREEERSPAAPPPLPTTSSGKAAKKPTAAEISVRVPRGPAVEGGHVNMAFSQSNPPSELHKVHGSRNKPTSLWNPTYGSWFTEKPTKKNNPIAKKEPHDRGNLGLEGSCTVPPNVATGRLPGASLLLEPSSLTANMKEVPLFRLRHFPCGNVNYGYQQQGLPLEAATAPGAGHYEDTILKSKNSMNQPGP
Structure (SMILES),Percentage inhibition of kinase enzyme activity [1] [%],Percentage inhibition of kinase enzyme activity [2] [%],Percentage inhibition of kinase enzyme activity [3] [%],Percentage inhibition of kinase enzyme activity [4] [%],Percentage inhibition of kinase enzyme activity [5] [%],Percentage inhibition of kinase enzyme activity [6] [%],Percentage inhibition of kinase enzyme activity [7] [%],Percentage inhibition of kinase enzyme activity [8] [%],Percentage inhibition of kinase enzyme activity [9] [%],Percentage inhibition of kinase enzyme activity [10] [%],Percentage inhibition of kinase enzyme activity [11] [%],Percentage inhibition of kinase enzyme activity [12] [%],Percentage inhibition of kinase enzyme activity [13] [%],IC50 [6] [nM]
CC#CC(=O)N1CCC[C@H]1c1nc(-c2ccc(C(=O)Nc3ccccn3)cc2)c2c(N)nccn12 [acalabrutinib],5.84,-1.53,1.76,-7.15,2.91,-6.22,7.21,-1.39,-5.11,-1.47,5.27,12.37,-8.11,–
C=CC(=O)N1CCC([C@@H]2CCNc3c(C(N)=O)c(-c4ccc(Oc5ccccc5)cc4)nn32)CC1 [zanubrutinib],–,–,–,–,2.22,1.70,-0.85,0.0146,-0.67,–,–,–,–,–
O=C(c1ccc(Oc2ccccc2)cc1Cl)c1c[nH]c2ncnc(N[C@@H]3CC[C@@H](CO)OC3)c12 [nemtabrutinib],–,8.61,5.13,5.68,90.23,45.29,65.10,100.03,1.16,2.54,50.65,56.12,0.63,34
COc1ccc(F)cc1C(=O)NCc1ccc(-c2nn([C@@H](C)C(F)(F)F)c(N)c2C(N)=O)cc1 [pirtobrutinib],12.27,-3.75,-1.13,-0.58,18.17,12.14,39.97,0.91,3.55,-1.19,6.67,7.34,-2.61,–
C=CC(=O)N1CCC[C@@H](n2nc(-c3ccc(Oc4ccccc4)cc3)c3c(N)ncnc32)C1 [ibrutinib],92.75,-4.51,1.53,9.10,99.02,81.29,6.95,5.04,-21.37,-2.01,5.45,19.75,–,–
